Assay results as given in publication PMC10882719 (Frontiers in Neuroscience, 2024).
Read-outs that look alike come from different tables or passages of the source.

What was measured:
Format in all cases: cell-based
168 GPCRs [1] = target: T1, 168 GPCRs (Homo sapiens, UniProt O95977)
T1 construct: host or cells: PathHunter cell lines
T1 sequence (O95977 1-384): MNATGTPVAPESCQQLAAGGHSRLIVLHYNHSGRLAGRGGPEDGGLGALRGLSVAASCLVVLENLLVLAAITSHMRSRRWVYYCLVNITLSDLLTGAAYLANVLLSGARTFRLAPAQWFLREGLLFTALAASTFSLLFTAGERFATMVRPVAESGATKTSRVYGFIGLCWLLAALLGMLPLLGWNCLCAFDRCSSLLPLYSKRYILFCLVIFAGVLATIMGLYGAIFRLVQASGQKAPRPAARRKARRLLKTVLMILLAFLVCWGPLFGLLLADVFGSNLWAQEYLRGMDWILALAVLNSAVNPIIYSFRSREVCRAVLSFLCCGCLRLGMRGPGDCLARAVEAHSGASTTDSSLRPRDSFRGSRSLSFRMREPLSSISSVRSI
Method: (§1) Studies were performed at Eurofins DiscoverX Corporation (Fremont, CA) using the GPCRmax assay according to the manufacturer’s protocols. […] Activity greater than 30% typically indicates agonist activity and inhibition greater than 50% indicates antagonist activity. This assay uses enzyme fragment complementation with […] as the functional reporter. When a GPCR is activated, […] is recruited and the reporter is detectable. GPCRmax offers a high-throughput screen of 168 GPCRs for agonist or antagonist activity. Briefly, PathHunter cell lines were propagated, seeded into 384-well microplates and incubated at 37°C. […] Microplates were read following signal generation with a PerkinElmer Envision™ instrument for chemiluminescent signal detection. Compound activity was analyzed using CBIS data analysis suite (ChemInnovation, CA) to determine raw values (RLU). For agonist mode assay, percentage activity was calculated using the following formula: % Activity =100% × (mean RLU of test sample - mean RLU of vehicle control) / (mean MAX control ligand - mean RLU of vehicle control). For antagonist mode assay, percentage inhibition was calculated using the following formula: % Inhibition =100% × (1 - (mean RLU of test sample - mean RLU of vehicle control) / (mean RLU of EC80 control - mean RLU of vehicle control)).

168 GPCRs [2] = target: T2, 168 GPCRs (Homo sapiens, UniProt P32239); conditions: CCKBR
T2 construct: host or cells: PathHunter cell lines
T2 sequence (P32239 1-447): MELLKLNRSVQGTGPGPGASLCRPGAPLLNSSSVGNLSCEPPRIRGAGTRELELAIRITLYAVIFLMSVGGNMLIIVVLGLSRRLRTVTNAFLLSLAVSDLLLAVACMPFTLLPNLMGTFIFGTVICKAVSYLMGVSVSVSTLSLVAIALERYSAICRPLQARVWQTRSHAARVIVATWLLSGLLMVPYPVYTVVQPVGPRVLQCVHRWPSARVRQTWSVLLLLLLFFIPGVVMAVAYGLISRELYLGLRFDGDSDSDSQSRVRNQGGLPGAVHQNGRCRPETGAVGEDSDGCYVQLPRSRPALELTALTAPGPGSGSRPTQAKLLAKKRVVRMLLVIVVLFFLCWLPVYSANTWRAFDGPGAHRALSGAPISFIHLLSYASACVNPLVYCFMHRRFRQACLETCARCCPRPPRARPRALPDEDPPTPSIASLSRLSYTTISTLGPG
Method: as §1

168 GPCRs [3] = target: T3, 168 GPCRs (Homo sapiens, UniProt P49238)
T3 construct: host or cells: PathHunter cell lines
T3 sequence (P49238 1-355): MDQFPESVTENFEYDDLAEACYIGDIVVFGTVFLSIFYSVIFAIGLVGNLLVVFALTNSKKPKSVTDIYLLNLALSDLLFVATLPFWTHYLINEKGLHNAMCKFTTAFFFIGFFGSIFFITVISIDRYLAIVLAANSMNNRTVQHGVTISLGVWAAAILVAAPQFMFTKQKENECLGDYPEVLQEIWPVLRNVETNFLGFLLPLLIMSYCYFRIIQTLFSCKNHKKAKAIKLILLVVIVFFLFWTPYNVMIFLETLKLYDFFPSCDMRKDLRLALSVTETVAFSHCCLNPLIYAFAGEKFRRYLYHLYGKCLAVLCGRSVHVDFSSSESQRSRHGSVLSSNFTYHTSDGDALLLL
Method: as §1

168 GPCRs [4] = target: T4, 168 GPCRs (Homo sapiens, UniProt P51686)
T4 construct: host or cells: PathHunter cell lines
T4 sequence (P51686 1-369): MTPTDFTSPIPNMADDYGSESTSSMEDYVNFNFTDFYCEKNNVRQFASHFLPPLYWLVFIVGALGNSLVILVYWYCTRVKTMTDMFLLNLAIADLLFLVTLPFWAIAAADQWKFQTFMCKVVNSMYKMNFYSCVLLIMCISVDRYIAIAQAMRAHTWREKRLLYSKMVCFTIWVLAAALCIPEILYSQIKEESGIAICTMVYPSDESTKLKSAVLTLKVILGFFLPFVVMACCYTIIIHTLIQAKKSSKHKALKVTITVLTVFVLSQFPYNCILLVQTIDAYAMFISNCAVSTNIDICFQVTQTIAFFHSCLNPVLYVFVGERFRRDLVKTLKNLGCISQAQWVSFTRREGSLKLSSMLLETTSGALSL
Method: as §1

168 GPCRs [5] = target: T5, 168 GPCRs (Homo sapiens, UniProt Q8NFJ6); conditions: PROKR2
T5 construct: host or cells: PathHunter cell lines
T5 sequence (Q8NFJ6 whole entry): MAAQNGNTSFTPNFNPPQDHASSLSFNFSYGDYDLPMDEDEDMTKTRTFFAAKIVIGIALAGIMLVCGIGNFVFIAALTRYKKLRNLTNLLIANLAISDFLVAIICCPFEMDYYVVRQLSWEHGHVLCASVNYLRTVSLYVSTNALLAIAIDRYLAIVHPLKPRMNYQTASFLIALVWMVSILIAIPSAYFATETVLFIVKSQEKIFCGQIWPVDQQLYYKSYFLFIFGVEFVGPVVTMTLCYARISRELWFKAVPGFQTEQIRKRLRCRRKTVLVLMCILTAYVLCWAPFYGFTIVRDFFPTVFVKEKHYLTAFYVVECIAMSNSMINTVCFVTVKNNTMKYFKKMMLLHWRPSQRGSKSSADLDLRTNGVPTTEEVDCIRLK
Method: as §1

168 GPCRs [6] = target: T6, 168 GPCRs (Homo sapiens, UniProt Q8TDS4); conditions: GPR109A
T6 construct: host or cells: PathHunter cell lines
T6 sequence (Q8TDS4 whole entry): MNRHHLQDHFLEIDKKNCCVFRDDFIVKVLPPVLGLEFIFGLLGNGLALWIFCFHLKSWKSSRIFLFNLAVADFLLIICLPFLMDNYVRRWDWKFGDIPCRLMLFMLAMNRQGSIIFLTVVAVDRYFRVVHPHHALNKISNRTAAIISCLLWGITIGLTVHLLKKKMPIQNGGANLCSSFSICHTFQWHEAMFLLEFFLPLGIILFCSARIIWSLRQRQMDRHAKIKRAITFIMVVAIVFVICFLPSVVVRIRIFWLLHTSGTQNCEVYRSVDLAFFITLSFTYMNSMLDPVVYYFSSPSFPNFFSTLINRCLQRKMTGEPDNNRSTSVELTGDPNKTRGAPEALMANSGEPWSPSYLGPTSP
Method: as §1

168 GPCRs [7] = target: T7, 168 GPCRs (Homo sapiens, UniProt Q8TDS5); conditions: OXER1
T7 construct: host or cells: PathHunter cell lines
T7 sequence (Q8TDS5 whole entry): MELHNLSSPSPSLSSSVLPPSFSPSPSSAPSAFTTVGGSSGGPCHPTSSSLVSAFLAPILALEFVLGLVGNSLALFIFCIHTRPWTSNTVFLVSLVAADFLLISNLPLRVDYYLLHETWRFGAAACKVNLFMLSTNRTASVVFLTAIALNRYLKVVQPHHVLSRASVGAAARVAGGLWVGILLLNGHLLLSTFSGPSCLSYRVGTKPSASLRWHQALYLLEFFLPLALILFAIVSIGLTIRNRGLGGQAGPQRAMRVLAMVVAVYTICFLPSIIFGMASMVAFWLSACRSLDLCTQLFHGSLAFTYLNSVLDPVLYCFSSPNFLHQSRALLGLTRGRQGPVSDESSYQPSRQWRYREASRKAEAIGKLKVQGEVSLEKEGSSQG
Method: as §1

5HT5A = target: T8, 5HT5A (Homo sapiens, UniProt P47898); test: GPCRmax screen, agonist mode, 5HT5A; conditions: for % Agonist Activity: HTR5A
T8 construct: β-galactosidase enzyme fragment (enzyme fragment complementation reporter); host or cells: PathHunter cell lines
T8 sequence (P47898 whole entry, the tested form may be a part): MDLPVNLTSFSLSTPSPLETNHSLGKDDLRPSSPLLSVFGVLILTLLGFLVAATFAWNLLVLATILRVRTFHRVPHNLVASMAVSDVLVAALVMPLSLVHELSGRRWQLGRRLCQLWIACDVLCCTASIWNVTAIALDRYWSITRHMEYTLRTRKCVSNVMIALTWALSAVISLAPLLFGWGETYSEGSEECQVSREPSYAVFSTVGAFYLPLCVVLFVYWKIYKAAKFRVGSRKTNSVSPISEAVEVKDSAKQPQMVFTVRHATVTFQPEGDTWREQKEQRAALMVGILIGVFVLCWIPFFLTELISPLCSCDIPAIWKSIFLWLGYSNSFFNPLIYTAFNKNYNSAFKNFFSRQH
Method: as §1

5HT2A receptor = target: T9, 5HT2A receptor (Homo sapiens, UniProt P28223); test: GPCRmax screen, antagonist mode, 5HT2A; conditions: HTR2A
T9 construct: β-galactosidase enzyme fragment (enzyme fragment complementation reporter); host or cells: PathHunter cell lines
T9 sequence (P28223 whole entry, the tested form may be a part): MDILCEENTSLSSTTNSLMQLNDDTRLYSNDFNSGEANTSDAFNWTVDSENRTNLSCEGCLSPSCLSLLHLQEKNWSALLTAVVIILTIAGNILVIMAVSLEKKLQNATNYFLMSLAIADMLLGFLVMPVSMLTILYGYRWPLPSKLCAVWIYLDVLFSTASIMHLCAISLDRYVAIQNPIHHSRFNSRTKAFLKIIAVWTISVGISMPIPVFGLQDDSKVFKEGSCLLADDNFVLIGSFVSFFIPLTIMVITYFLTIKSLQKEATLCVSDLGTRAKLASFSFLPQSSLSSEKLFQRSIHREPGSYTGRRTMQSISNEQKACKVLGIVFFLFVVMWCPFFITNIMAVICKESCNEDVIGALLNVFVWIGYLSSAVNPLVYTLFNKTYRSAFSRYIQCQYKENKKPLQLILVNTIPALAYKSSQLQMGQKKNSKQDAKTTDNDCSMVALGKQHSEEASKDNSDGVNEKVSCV
Method: as §1

Structure (SMILES)	% Agonist Activity (168 GPCRs [1]; EDG6, 1 uM) [%]	% Antagonist Activity (168 GPCRs [1]; EDG6, 1 uM) [%]	% Agonist Activity (168 GPCRs [1]; EDG6, 10 uM) [%]	% Antagonist Activity (168 GPCRs [1]; EDG6, 10 uM) [%]	% Agonist Activity (168 GPCRs [2]; 1 uM) [%]	% Antagonist Activity (168 GPCRs [2]; 1 uM) [%]	% Agonist Activity (168 GPCRs [2]; 10 uM) [%]	% Antagonist Activity (168 GPCRs [2]; 10 uM) [%]	% Agonist Activity (168 GPCRs [3]; CX3CR1, 1 uM) [%]	% Antagonist Activity (168 GPCRs [3]; CX3CR1, 1 uM) [%]	% Agonist Activity (168 GPCRs [3]; CX3CR1, 10 uM) [%]	% Antagonist Activity (168 GPCRs [3]; CX3CR1, 10 uM) [%]	% Agonist Activity (168 GPCRs [4]; CCR9, 1 uM) [%]	% Antagonist Activity (168 GPCRs [4]; CCR9, 1 uM) [%]	% Agonist Activity (168 GPCRs [4]; CCR9, 10 uM) [%]	% Antagonist Activity (168 GPCRs [4]; CCR9, 10 uM) [%]	% Agonist Activity (168 GPCRs [5]; Conc 1 uM) [%]	% Antagonist Activity (168 GPCRs [5]; Conc 1 uM) [%]	% Agonist Activity (168 GPCRs [5]; Conc 10 uM) [%]	% Antagonist Activity (168 GPCRs [5]; Conc 10 uM) [%]	also measured
CNC(C)Cc1ccc2c(c1)OCO2 (centres unmarked) [MDMA, 3,4-Methylenedioxy methamphetamine, reference compound]	6.3	14.1	4	18	2.3	3.2	1.2	5.2	-1.3	6.5	-1.4	3.7	0.1	5.3	0.2	14.5	-0.6	14.4	-0.3	19.4	% Agonist Activity (168 GPCRs [6]; 1 uM): -2.1%; % Antagonist Activity (168 GPCRs [6]; 1 uM): 3.7%; % Agonist Activity (168 GPCRs [6]; 10 uM): 0.4%; % Antagonist Activity (168 GPCRs [6]; 10 uM): 1%; % Agonist Activity (168 GPCRs [7]; Conc 1 uM): 6.3%; % Antagonist Activity (168 GPCRs [7]; Conc 1 uM): -7.5%; % Agonist Activity (168 GPCRs [7]; Conc 10 uM): 4.8%; % Antagonist Activity (168 GPCRs [7]; Conc 10 uM): -1.7%; % Agonist Activity (5HT5A; 1 uM): 7.2%; % Agonist Activity (5HT5A; 10 uM): 0.8%; % Antagonist Activity (5HT2A receptor; 1 uM): 5.1%; % Antagonist Activity (5HT2A receptor; 10 uM): 3%
CNC(C)C(=O)c1ccc2c(c1)OCO2 (centres unmarked) [methylone]	-1.7	13.2	-0.3	7.8	-1	-1.1	1.5	-2.4	0	-0.2	-0.4	-6.1	-0.5	2.9	0.2	-9.9	-0.6	2	-0.6	-6.8	% Agonist Activity (168 GPCRs [6]; 1 uM): -8.7%; % Antagonist Activity (168 GPCRs [6]; 1 uM): 1.4%; % Agonist Activity (168 GPCRs [6]; 10 uM): -4.3%; % Antagonist Activity (168 GPCRs [6]; 10 uM): -0.3%; % Agonist Activity (168 GPCRs [7]; Conc 1 uM): 3.2%; % Antagonist Activity (168 GPCRs [7]; Conc 1 uM): 2.9%; % Agonist Activity (168 GPCRs [7]; Conc 10 uM): -3.7%; % Antagonist Activity (168 GPCRs [7]; Conc 10 uM): 7.6%; % agonist activity, 5HT5A (greatest activity detected) (5HT5A; 1 or 10 μM, threshold 30% activity): 13.9%; % Agonist Activity (5HT5A; 1 uM): 13.6%; % Agonist Activity (5HT5A; 10 uM): 13.9%; % Antagonist Activity (5HT2A receptor; 1 uM): -7.9%; % Antagonist Activity (5HT2A receptor; 10 uM): -2.7%
